Laboratory results taken from patent EP0238982B1, “Anticholinergic compounds, pharmaceutical compositions and method of treatment” (UNIVERSITY OF FLORIDA, priority 1986, dated 1987).
Like-named read-outs stand apart in the source and are kept apart here.

Experiments:
[1] = Hydrolytic rate constants in aqueous buffered solution at pH 12, 37°C (HPLC); type: physicochemical; conditions: for observed First Order Hydrolytic Rate Constants (k) K ± S.E: average of three runs ± S.E.M.
Protocol: A high pressure liquid chromatography (HPLC) method was used for the determination of rate of hydrolysis of the newly prepared tropanyl esters in aqueous buffered solution at pH 12.0 and in human plasma.
(§1) The chromatographic analysis was performed in a system consisting of LCD/Milton Roy Consta Metric III metering pump and LCD UV III Monitor Detector operated at 254 nm. A 30 cm x 3.9 mm (internal diameter) reverse phase ASI/U Bondpak C18 column operated at ambient temperature was used for the analysis. The mobile phase consisted of 32% acetonitrile in 0.01 M potassium dihydrogen phosphate, 0.004 M 1-octanesulfonic acid, sodium in 0.1% acetic acid at a flow rate of 2.3 ml/min.
Sodium hydroxide and sodium dibasic phosphate were used to prepare the buffer at pH 12. The ionic strength was maintained at 0.1 M with sodium chloride.
One hundred microliters of a freshly prepared solution of the compound in methanol was added to 10 ml buffered solution, previously equilibrated to 37°C in a water bath and mixed thoroughly to make an initial concentration of 6 x 10⁻³ mol. liter⁻¹. Samples of 100 µl were injected into the column at various time intervals. […] A mobile phase of 40% acetonitrile was used to separate compounds 4 and 6 at a flow rate of 2.0 ml/min.
The previous method adapted for the hydrolysis of compounds 1, 2, 3 and 5 was used for the determination of rate of hydrolysis of compounds 4, 6 and 7. In case of compounds 4 and 6, the mobile phase is 40% acetonitrile, 0.01 M KH₂PO₄, 0.04M 1-octanesulfonic acid sodium salt and 0.1% HAC, at a flow rate 2 ml/min.

[2] = test system: carbachol-induced spasms of strips of ileum; test: Anticholinergic activity in vitro: inhibition of carbachol-induced spasms of guinea pig ileum strips; type: cell-based; conditions: for Kb: Cavia porcellus
Protocol: The anticholinergic activity of all the new compounds was investigated in vitro by studying the inhibitory action of the drugs on carbachol-induced spasms of strips of ileum from freshly killed guinea pigs. The terminal ileum from guinea pig (200-500 g) was cut into 2-3 cm strips and suspended in freshly prepared Tyrode's solution in 40 ml organ bath. The solution was aerated with 95% oxygen and 5% carbon dioxide at 37°C. A tension of 1 g was applied to the tissue, and cumulative-response curves recorded with carbachol until constant responses were obtained. A concentration of the antagonist was then added to the bath and after 10 seconds, further concentration response curves to carbachol were established. This procedure was then repeated using increasing concentrations of the antagonist. EC₅₀ was calculated for carbachol alone and for carbachol in the presence of the various antagonist concentrations. Atropine was used as standard for comparison. The PA₂ was calculated as follows: PA₂ = log ((A)/(a)-1) -log [antagonist] [formula] A = EC₅₀ or carbachol in presence of the antagonist a = EC₅₀ for carbachol alone before adding antagonist

[3] = Enzymatic hydrolysis in rat liver homogenate at 37°C (HPLC); type: in vitro ADME, Sprague-Dawley rats; conditions: for Rates of hydrolysis in liver homogenate K ± S.E.: 20% rat liver homogenate; for half-life / half-life at 6000 µM: rat, liver homogenate
Protocol: The liver homogenate was prepared by the following method. Two Sprague-Dawley rats were killed by decapitation, and the livers were removed, weighed and homogenized in a tissue homogenizer in 0.11 M aqueous phosphate buffer, pH 7.4, to make 20% liver homogenate. The homogenate was centrifuged and the supernatant was used for the test. 100 l of 0.6 M solution of the ester in methanol was mixed with 10 ml of the homogenate, previously equilibrated to 37°C in a water bath, to result in an initial concentration of 6 x 10⁻³ mol/liter⁻¹. samples of 1.0 ml were withdrawn at time intervals from the medium, added immediately to 3 ml ice-cold acetonitrile, shaken vigorously, and placed in a freezer. When all samples had been collected, they were centrifuged, and each supernantant was analyzed by HPLC.

[4] = Enzymatic hydrolytic cleavage rates in human plasma at 37°C (HPLC); type: in vitro ADME; set-up: half-life: dose or concentration left out as unconfirmed; conditions: for half-life: read-out: half lives (t 1/2) (converted)
Protocol: as §1
Freshly collected plasma was used which contained about 80% plasma diluted with anticoagulant citrate phosphate dextrose solution, U.S.P.
A 100 µl volume of a freshly prepared solution of the compound in methanol was added to 10 ml plasma, previously equilibrated a 37°C in a water bath, and mixed thoroughly to result in an initial concentration of 6 x 10⁻³ mol. liter⁻¹. One ml samples of plasma were withdrawn from the test medium, mixed immediately with 3 ml ice cold acetonitrile, centrifuged and the supernatant analyzed by HPLC. The first order hydrolytic rate constant was determined by following the disappearance of the compound as function of time.

[5] = Hydrolysis of tertiary ethyl ester (2) and formation of its degradation product (7) at pH 12, 37°C (HPLC); type: physicochemical; set-up: dose or concentration left out as unconfirmed; conditions: 0.01 N NaOH pH at 37°C, read-out: t 1/2, hydrolysis (disappearance) of tertiary ethyl ester (2)
Protocol: The mobile phase used for the separation of compound (2) and its degradation product, the half ester (7) consisted of 32% MeCN, 0.01M KH₂PO₄, 0.004M 1-octanesulfonic acid sodium salt and 0.1% acetic acid. At flow rate of 1.5 ml/min (2) and (7) have retention times of 9 min and 4.6 min, respectively.
100 microliters of a freshly prepared solution of compound (2) in methanol was added to 10 ml buffered solution (pH 12), previously equilibrated to 37°C in a water bath to result in an initial concentration of 6 x 10⁻³ mol liter⁻¹. Samples of 1 ml were taken at time intervals and mixed with 3 ml of acetonitrile. 100 microliters of the collected samples were injected and disappearance of (2) and formation of (7) was followed by HPLC.

[6] = Hydrolysis of tropanyl hydrogen phenyl malonate (7) to the dibasic acid (8) at pH 12, 37°C (HPLC); type: physicochemical; conditions: 0.01 n naoh; 0.01 N sodium hydroxide, pH 12 at 37°C; read-out: t 1/2, hydrolysis (disappearance) of (7)
Protocol: The previously described method for the determination of rate of hydrolysis of compound (2) was followed for the determination of hydrolysis of compound (7).
The disappearance of compound (7) was followed by HPLC.
The concentration of the formed dibasic acid was determined by HPLC. 15% acetonitrile, 0.01M KH₂ PO₄ and 0.1% acetic acid was used as a mobile phase. At a flow rate of 2 ml/min, the product has a retention time of 4 min.
The collected samples after determination of rate of disappearance of compound (7) were used for the determination of rate of formation of the hydrolysis product (8). 100 microliters of the sample was injected and the formation of the product was followed by HPLC.

[7] = 0.01 N sodium hydroxide at pH 12.0, at 37°C
[8] = 0.01 n naoh buffer, 0.01 N sodium hydroxide at pH 12.0, at 37°C, read-out: half-life (t 1/2)
[9] = aqueous buffer, aqueous solution pH 12, 37°C, average of three runs, read-out: t 1/2 (Min) AQUEOUS SOLN, pH 12, 37°C
[10] = guinea pig ileum, against carbachol, average of two experiments (compounds 1 and 4: three), read-out: PA2 (converted)
[11] = pH 7.4, 20% rat liver homogenate, pH 7.4, 37°C, read-out: t 1/2 in liver homogenate
[12] = pH 7.4, rat liver homogenate, 37°C, average of three runs, read-out: t 1/2 (Min) RAT LIVER HOMOGENATE, 37°C
[13] = 0.01 m naoh buffer, 0.01 M sodium hydroxide at pH 12 and 37°C, read-out: half lives (t 1/2)
[14] = method of Example 19, quaternary methiodide soft esters, read-out: PA2 QUATERNARY AMINE (converted)

SMILES | observed First Order Hydrolytic Rate Constants (k) K ± S.E [1, 7] | half-life [1, 8] [min] | half-life [1, 9] [min] | Kb [2, 10] [nM] | Rates of hydrolysis in liver homogenate K ± S.E. ([3]; pH 7.4, 37°C) | half-life [3, 11] [min] | half-life [3, 12] [min] | kobsd HUMAN PLASMA, 37°C [4] | observed first order hydrolytic rate constants (K) ± S.E.M. [4] | half-life ([4]; human plasma at 37°C) [h] | half-life [1, 13] [min] | further results
COC(=O)C(C(=O)OC1CC2CCC(C1)N2C)c1ccccc1 (racemic) [Compound 1, Methyl (±)-α-(carboxy)-8-methyl-8-azabicyclo[3·2·1]oct-3-yl-benzeneacetate] | 1.43 ± 0.12 x 10^-1 min^-1 | 4.8 | 4.8 | 282 |  |  |  |  |  |  |  | 
CCOC(=O)C(C(=O)OC1CC2CCC(C1)N2C)c1ccccc1 (racemic) [Compound 2, Ethyl (±)-α-(carboxy)-8-methyl-8-azabicyclo[3·2·1]oct-3-yl-benzeneacetate] | 16.9 ± 0.15 x 10^-2 min^-1 | 4.08 | 4.08 | 191 | 1.99 ± 0.996 x 10^-1 min^-1 | 3.48 | 3.48 | 15.0 ± 0.3 x 10^-5 min^-1 | 15.0 ± 0.3 x 10^-5 min^-1 | 77.4 |  | half-life [5]: 4.19 ± 0.14 min
CC(C)OC(=O)C(C(=O)OC1CC2CCC(C1)N2C)c1ccccc1 (racemic) [Compound 3, isopropyl (±)-α-(carboxy)-8-methyl-8-azabicyclo[3·2·1]oct-3-yl-benzeneacetate] | 30 ± 0.77 x 10^-3 min^-1 | 22.8 | 22.8 | 28.2 | 97.2 ± 0.76 x 10^-3 min^-1 | 7.12 | 7.12 | 6.27 ± 0.3 x 10^-5 min^-1 | 6.27 ± 0.3 x 10^-5 min^-1 | 186 |  | 
CN1C2CCC1CC(OC(=O)C(C(=O)OC1CCCCC1)c1ccccc1)C2 (racemic) [Compound 4, cyclohexyl (±)-α-(carboxy)-8-methyl-8-azabicyclo-[3.2.1]oct-3-yl-benzeneacetate] |  |  | 182 | 257 | 37.0 ± 0.3 x 10^-3 min^-1 | 18.7 | 18.7 | 4.44 ± 0.4 x 10^-5 min^-1 | 4.44 ± 0.4 x 10^-5 min^-1 | 270 | 182 | 
CCOC(=O)C(C(=O)OC1CC2CCC(C1)[N+]2(C)C)c1ccccc1 (racemic) [Compound 5, Ethyl (±)-α-(carboxy)-8-methyl-8-azabicyclo[3·2·1]oct-3-yl benzeneacetate methiodide] |  | 0.85 | 0.85 | 13.8 | 10.5 ± 0.28 x 10^-2 min^-1 |  |  |  |  | 82.2 |  | half-life at 6000 µM [3, 11]: 6.6 min; half-life at 6000 µM [3, 12]: 6.6 min; observed first order hydrolytic rate constants (K) ± S.E.M. ([4]; human plasma at 37°C, compound 2 average of 4 runs, the rest 3 runs): 14.1 ± 0.6 x 10^-5 min^-1; Kb [2, 14]: 14.1 nM
C[N+]1(C)C2CCC1CC(OC(=O)C(C(=O)OC1CCCCC1)c1ccccc1)C2 (racemic) [Compound 6, Cyclohexyl (±)-α-(carboxy)-8-methyl-8-azabicyclo-[3·2·1]oct-3-yl benzeneacetate methiodide] |  |  | 1.28 | 44.7 | 10.4 ± 0.23 x 10^-3 min^-1 | 66.8 | 66.8 | 6.31 ± 0.8 x 10^-5 min^-1 | 6.31 ± 0.8 x 10^-5 min^-1 | 183 | 1.28 | 
CN1C2CCC1CC(OC(=O)C(C(=O)O)c1ccccc1)C2 (racemic) [Compound 7, (±)-α-(carboxy)-8-methyl-8-azabicyclo-[3·2·1]oct-3-yl benzeneacetic acid] |  |  | 350 | 631 |  |  |  |  |  |  | 350 | half-life [6]: 331 ± 4.31 min
CC(C)OC(=O)C(C(=O)OC1CC2CCC(C1)[N+]2(C)C)c1ccccc1 (racemic) [VIc, isopropyl (±)-α-(carboxy)-8-methyl-8-azabicyclo[3·2·1]oct-3-yl-benzeneacetate methiodide] |  |  |  |  |  |  |  |  |  |  |  | Kb [2, 14]: 24.5 nM
CN1[C@@H]2CC[C@H]1C[C@@H](OC(=O)C(CO)c1ccccc1)C2 (some centres unmarked) [Atropine, reference compound] |  |  |  |  |  |  |  |  |  |  |  | PA2 [2]: 8.29; PA2 TERTIARY AMINE [2]: 8.29
